From the supplement of paper PMC11061612

Tests used:
[1] = test system: CCRF-CEM (T-Lymphoblastic Leukemia); assay: Bliss excess, mean over the matrix (fraction); higher = more synergy
Method in brief: (§1)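 After 24 hours at 37°C and 5% CO2 in 1536-well plates, cells in DMEM/F12 or RPMI plus 10% FBS received two-drug dose matrices for 72 hours. Viability came from CellTiter-Glo 2.0 luminescence and was scaled as inhibition, anchored at 0 by vehicle wells and at 1 by blank wells. Combination Emax is taken as the second-highest inhibition in the matrix, and Bliss excess as the observed combination effect less EA + EB − EA·EB, with EA and EB the single-agent effects.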

[2] = test system: LB831-BLC (Bladder Carcinoma); assay: as above
Method in brief: as §1

[3] = test system: NCI-H82 (Small Cell Lung Carcinoma); assay: as above
Method in brief: as §1

[4] = test system: TE-15 (Esophageal Squamous Cell Carcinoma); assay: as above
Method in brief: as §1

[5] = test system: CAL-148 (Breast Carcinoma); assay: combination Emax (second highest fraction inhibited in the dose matrix, 72 h); higher = more inhibition; extreme values may be limits of the assay
Method in brief: as §1

[6] = test system: CCRF-CEM (T-Lymphoblastic Leukemia); assay: as above
Method in brief: as §1

[7] = test system: CaR-1 (Colorectal Carcinoma); assay: as above
Method in brief: as §1

[8] = test system: HO-1-N-1 (Oral Cavity Carcinoma); assay: as above
Method in brief: as §1

HOS (Osteosarcoma) = assay: as above
Method in brief: as §1

[9] = test system: HT-1376 (Bladder Carcinoma); assay: as above
Method in brief: as §1

[10] = test system: Hs-578-T (Breast Carcinoma); assay: as above
Method in brief: as §1

KELLY (Neuroblastoma) = assay: as above
Method in brief: as §1

[11] = test system: KURAMOCHI (Ovarian Carcinoma); assay: as above
Method in brief: as §1

[12] = test system: LB831-BLC (Bladder Carcinoma); assay: as above
Method in brief: as §1

[13] = test system: LS-180 (Colorectal Carcinoma); assay: as above
Method in brief: as §1

[14] = test system: NCI-H2085 (Non-Small Cell Lung Carcinoma); assay: as above
Method in brief: as §1

[15] = test system: NCI-H82 (Small Cell Lung Carcinoma); assay: as above
Method in brief: as §1

[16] = test system: Ramos-2G6-4C10 (Burkitt's Lymphoma); assay: as above
Method in brief: as §1

T98G (Glioblastoma) = assay: as above
Method in brief: as §1

[17] = test system: UM-UC-3 (Bladder Carcinoma); assay: as above
Method in brief: as §1
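Wherever Bliss excess, mean over the matrix is given: after 72 h of two-drug dosing.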

Structure (SMILES) | Bliss excess [1] | Bliss excess [2] | Bliss excess [3] | Bliss excess [4] | combination Emax [5] | combination Emax [6] | combination Emax [7] | combination Emax [8] | combination Emax (HOS (Osteosarcoma)) | combination Emax [9] | combination Emax [10] | combination Emax (KELLY (Neuroblastoma)) | combination Emax [11] | combination Emax [12] | combination Emax [13] | combination Emax [14] | combination Emax [15] | combination Emax [16] | combination Emax (T98G (Glioblastoma)) | combination Emax [17]
C[C@@H](Oc1cc(-c2cnn(C3CCNCC3)c2)cnc1N)c1c(Cl)ccc(F)c1Cl [Crizotinib] + CC1=C(C(=CC=C1)Cl)NC(=O)C2=CN=C(S2)NC3=CC(=NC(=N3)C)N4CCN(CC4)CCO [Dasatinib] (first compound max 10 µM, 7x7, partner max 2 µM) | -0.0055 | 0.0269 | -0.0642 | -0.0403 | 0.578 | 0.911 | 0.943 | 0.972 | 0.756 | 0.418 | 0.961 | 0.991 | 0.909 | 0.921 | 0.585 | 1 | 0.875 | 0.586 | 0.971 | 0.716
C[C@@H]1COCCN1c1cc(C2([S@](C)(=N)=O)CC2)nc(-c2ccnc3[nH]ccc23)n1 [AZD6738] + C1CC(C1)(C(=O)[O-])C(=O)[O-].N.N.[Pt+2] [Carboplatin] (first compound max 10 µM, 7x7, partner max 10 µM) | -0.0161 | -0.051 | -0.117 | -0.0208 | 0.818 | 0.977 | 0.385 | 0.779 | 0.668 | 0.454 | 0.69 | 0.944 | 0.636 | 0.39 | 0.7 | 0.381 | 0.823 | 0.88 | 0.886 | 0.398
CC1(C)CCC(CN2CCN(c3ccc(C(=O)NS(=O)(=O)c4ccc(NCC5CCOCC5)c([N+](=O)[O-])c4)c(Oc4cnc5[nH]ccc5c4)c3)CC2)=C(c2ccc(Cl)cc2)C1 [Venetoclax] + CS(=O)(=O)CCNCc1ccc(-c2ccc3ncnc(Nc4ccc(OCc5cccc(F)c5)c(Cl)c4)c3c2)o1 [Lapatinib] (first compound max 1 µM, 7x7, partner max 10 µM) | 0.0013 | -0.0597 | -0.0384 | -0.0478 | 0.235 | 0.501 | 0.308 | 0.668 | 0.13 | 0.194 | 0.554 | 0.947 | 0.341 | 0.202 | 0.298 | 0.244 | 0.279 | 0.241 | 0.179 | 0.104
CS(=O)(=O)CCNCc1ccc(-c2ccc3ncnc(Nc4ccc(OCc5cccc(F)c5)c(Cl)c4)c3c2)o1 [Lapatinib] + Cn1cnc2c(F)c(Nc3ccc(Br)cc3Cl)c(C(=O)NOCCO)cc21 [Selumetinib] (first compound max 10 µM, 7x7, partner max 10 µM) | -0.0051 | -0.0344 | -0.0082 | -0.0388 | 0.373 | 0.46 | 0.426 | 0.956 | 0.332 | 0.287 | 0.69 | 0.936 | 0.58 | 0.379 | 0.758 | 0.341 | 0.416 | 0.347 | 0.25 | 0.306
C=CCn1c(=O)c2cnc(Nc3ccc(N4CCN(C)CC4)cc3)nc2n1-c1cccc(C(C)(C)O)n1 [AZD1775] + Nc1ccn([C@@H]2O[C@H](CO)[C@@H](O)C2(F)F)c(=O)n1 [Gemcitabine] (first compound max 1 µM, partner max 0.3 µM) | 0.0584 | 0.0909 | -0.0404 | 0.042 | 0.989 | 1 | 0.729 | 0.993 | 0.596 | 0.428 | 0.724 | 1 | 0.699 | 0.872 | 0.754 | 0.725 | 0.923 | 1 | 0.781 | 0.918
C=CCn1c(=O)c2cnc(Nc3ccc(N4CCN(C)CC4)cc3)nc2n1-c1cccc(C(C)(C)O)n1 [AZD1775] + CCc1c2c(nc3ccc(O)cc13)-c1cc3c(c(=O)n1C2)COC(=O)[C@]3(O)CC [SN-38] (first compound max 1 µM, partner max 0.3 µM) | -0.0423 | 0.0518 | -0.0569 | -0.0211 | 0.974 | 1 | 0.808 | 0.978 | 0.849 | 0.342 | 0.855 | 1 | 0.944 | 0.875 | 0.806 | 0.523 | 0.965 | 1 | 0.95 | 0.954
CN(CCO)CC[C@H](CSc1ccccc1)Nc1ccc(S(=O)(=O)NC(=O)c2ccc(N3CCC([C@@H](O)c4ccccc4-c4ccc(Cl)cc4)CC3)cc2)cc1S(=O)(=O)C(F)(F)F [AZD4320] + CC(=O)O[C@H]1C(=O)[C@@]2(C)[C@H]([C@H](OC(=O)c3ccccc3)[C@]3(O)C[C@H](OC(=O)[C@H](O)[C@@H](NC(=O)c4ccccc4)c4ccccc4)C(C)=C1C3(C)C)[C@]1(OC(C)=O)CO[C@@H]1C[C@@H]2O [Paclitaxel] (first compound max 1 µM, 7x7, partner max 3 µM) | -0.0072 | 0.104 | -0.0552 | 0.0118 | 1 | 1 | 0.911 | 1 | 1 | 0.775 | 1 | 1 | 0.707 | 0.965 | 0.94 | 0.97 | 0.941 | 0.872 | 0.993 | 0.966
N#Cc1cnc(Nc2cc(NC[C@H]3CNCCO3)c(C(F)(F)F)cn2)cn1 [SRA737] + O=c1[nH]cc(F)c(=O)[nH]1 [5-Fluorouracil] (first compound max 10 µM, 7x7, partner max 20 µM) | 0.0179 | 0.0113 | -0.111 | -0.0033 | 0.497 | 0.99 | 0.229 | 0.473 | 0.435 | 0.175 | 0.612 | 1 | 0.606 | 0.34 | 0.568 | 0.501 | 0.816 | 0.84 | 0.837 | 0.208
N#Cc1cnc(Nc2cc(NC[C@H]3CNCCO3)c(C(F)(F)F)cn2)cn1 [SRA737] + Nc1ccn([C@@H]2O[C@H](CO)[C@@H](O)C2(F)F)c(=O)n1 [Gemcitabine] (first compound max 10 µM, 7x7, partner max 0.3 µM) | 0.0316 | 0.0477 | -0.0231 | 0.0703 | 0.845 | 1 | 0.67 | 1 | 0.752 | 0.442 | 0.837 | 1 | 0.673 | 0.911 | 0.804 | 0.595 | 0.978 | 0.976 | 0.825 | 0.966
C[C@@H](Oc1cc(-c2cnn(C3CCNCC3)c2)cnc1N)c1c(Cl)ccc(F)c1Cl [Crizotinib] + Cn1cnc2c(F)c(Nc3ccc(Br)cc3Cl)c(C(=O)NOCCO)cc21 [Selumetinib] (first compound max 10 µM, 7x7, partner max 10 µM) | -0.0682 | -0.049 | -0.0702 | -0.021 | 0.578 | 0.854 | 0.491 | 0.769 | 0.457 | 0.0756 | 0.512 | 0.98 | 0.508 | 0.55 | 0.717 | 0.545 | 0.787 | 0.4 | 0.427 | 0.346
O=C(c1cc(Cc2n[nH]c(=O)c3ccccc23)ccc1F)N1CCN(C(=O)C2CC2)CC1 [Olaparib] + CN(CC[C@H](CSC1=CC=CC=C1)NC2=C(C=C(C=C2)S(=O)(=O)NC(=O)C3=CC=C(C=C3)N4CCC(CC4)[C@H](C5=CC=CC=C5C6=CC=C(C=C6)Cl)O)S(=O)(=O)C(F)(F)F)CCO [AZD4320] (first compound max 10 µM, 7x7, partner max 1 µM) | 0.0247 | -0.0076 | -0.0532 | -0.0494 | 0.83 | 0.986 | 0.136 | 0.352 | 0.277 | 0.215 | 0.62 | 0.831 | 0.379 | 0.409 | 0.227 | 0.289 | 0.382 | 0.404 | 0.251 | 0.188
O=C(c1cc(Cc2n[nH]c(=O)c3ccccc23)ccc1F)N1CCN(C(=O)C2CC2)CC1 [Olaparib] + Cc1c2c(nn1C)CSCc1cc(n(C)n1)CSc1cc(c3ccccc3c1)OCCCc1c(C(=O)O)n(C)c3c-2c(Cl)ccc13 [AZD5991] (first compound max 10 µM, 7x7, partner max 1 µM) | 0.0053 | -0.0371 | -0.0755 | -0.0392 | 0.635 | 0.271 | 0.13 | 0.78 | 0.254 | 0.0928 | 0.489 | 0.934 | 0.28 | 0.136 | 0.221 | 0.0831 | 0.899 | 0.978 | 0.223 | 0.0695
CN(CCO)CC[C@H](CSc1ccccc1)Nc1ccc(S(=O)(=O)NC(=O)c2ccc(N3CCC([C@@H](O)c4ccccc4-c4ccc(Cl)cc4)CC3)cc2)cc1S(=O)(=O)C(F)(F)F [AZD4320] + Nc1ccn([C@@H]2O[C@H](CO)[C@@H](O)C2(F)F)c(=O)n1 [Gemcitabine] (first compound max 1 µM, 7x7, partner max 0.3 µM) | 0.0061 | -0.0192 | 0.016 | 0.0164 | 0.974 | 1 | 0.708 | 1 | 0.829 | 0.236 | 0.876 | 0.999 | 0.559 | 0.881 | 0.66 | 0.562 | 0.807 | 0.554 | 0.861 | 0.979
